The target of this assay is S1P1 receptors (Homo sapiens, UniProt P21453). Description: 35S-GTPyS binding assay. The format is biochemical. As to conditions: 35S-GTPyS binding on membranes; compound 0.1 nM-10 μM; 10 μM S1P as 100% maximum efficacy; 90 min at room temperature. How it is done:
The effect of the compounds was measured using a 35S-GTPyS binding assay. Briefly, membranes were incubated in a buffer containing 20 mM HEPES pH 7.4, 100 mM NaCl, 10 mM MgCl2, 10 μM GDP, 50 μg/ml saponin and 0.2% fatty acid-free BSA at various concentrations (0.1 nM-10 μM) and 0.1 nM 35S-GTPyS. 10 μM S1P was used as 100% maximum efficacy. The assay was incubated for 90 min at room temperature with gentle mixing, and terminated by filtrating the reaction mixture through GF/C filter plates using the Manifold Filtration System. The filters were immediately washed with sodium phosphate pH 7.4 buffers. After drying the filter plates scintillant liquid were added to each well and 35S-GTPyS binding was measured on a Trilux Scintillation Counter.

For 24 compounds, EC50 results are on record in patent US20110311485A1, “1,2,4-OXADIAZOLE DERIVATIVES AND THEIR THERAPEUTIC USE” (ALMIRALL S.A., priority 2008, published 2011).

Sequence of S1P1 receptors (P21453 whole entry): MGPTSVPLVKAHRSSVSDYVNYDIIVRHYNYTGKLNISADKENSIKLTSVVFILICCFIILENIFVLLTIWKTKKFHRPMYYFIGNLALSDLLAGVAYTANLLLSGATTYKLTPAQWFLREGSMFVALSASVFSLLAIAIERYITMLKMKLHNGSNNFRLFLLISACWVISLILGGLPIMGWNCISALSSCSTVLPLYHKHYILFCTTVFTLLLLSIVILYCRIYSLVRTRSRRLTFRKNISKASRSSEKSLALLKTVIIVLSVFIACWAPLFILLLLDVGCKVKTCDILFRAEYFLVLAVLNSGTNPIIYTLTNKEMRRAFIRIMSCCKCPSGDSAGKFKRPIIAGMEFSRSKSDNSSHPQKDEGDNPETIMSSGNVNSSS

A word on the EC50: it is the midpoint of the concentration-response curve. Turning to `CCn1nc(-c2nc(-c3ccc(S(N)(=O)=O)cc3)no2)c2c1CC(C)(C)CC2` [Example 5, 4-(5-(1-Ethyl-6,6-dimethyl-4,5,6,7-tetrahydro-1H-indazol-3-yl)-1,2,4-oxadiazol-3-yl)benzenesulfonamide], the EC50 was found to be 40 nM.

The compound `CCn1nc(-c2nc(-c3ccc(N4CCN(CCC(=O)O)CC4)cc3)no2)c2c1CC(C)(C)CC2` [Example 8, 3-(4-(4-(5-(1-ethyl-6,6-dimethyl-4,5,6,7-tetrahydro-1H-indazol-3-yl)-1,2,4-oxadiazol-3-yl)phenyl)piperazin-1-yl)propanoic Acid] had an EC50 of 17 nM. Compared with the last compound, the EC50 is about 2.4-fold lower.

For `CC1(C)CCc2c(-c3nc(-c4ccc(C(N)=O)cc4)no3)nn(Cc3ccccc3)c2C1` [Example 21, 4-(5-(1-Benzyl-6,6-dimethyl-4,5,6,7-tetrahydro-1H-indazol-3-yl)-1,2,4-oxadiazol-3-yl)benzamide], the EC50 was 18 nM.

As to `CCn1nc(-c2nc(-c3ccncc3C)no2)c2c1CC(C)(C)CC2` [Example 36, 5-(1-Ethyl-6,6-dimethyl-4,5,6,7-tetrahydro-1H-indazol-3-yl)-3-(3-methylpyridin-4-yl)-1,2,4-oxadiazole], the EC50 worked out at 48 nM. This EC50 is about 2.7-fold higher than that of the compound before.

Turning to `CCn1nc(-c2nc(-c3ccc(CCC(=O)O)cc3C)no2)c2c1CC(C)(C)CC2` [Example 42, 3-(4-(5-(1-Ethyl-6,6-dimethyl-4,5,6,7-tetrahydro-1H-indazol-3-yl)-1,2,4-oxadiazol-3-yl)-3-methylphenyl)propanoic Acid], the EC50 came to 16 nM.

`CCn1nc(-c2nc(-c3ccc(CCN)cc3C)no2)c2c1CC(C)(C)CC2` [Example 48, 2-(4-(5-(1-Ethyl-6,6-dimethyl-4,5,6,7-tetrahydro-1H-indazol-3-yl)-1,2,4-oxadiazol-3-yl)-3-methylphenyl)ethanamine] had an EC50 of 8 nM.

Regarding `CCc1cc(-c2noc(-c3nn(CC(F)(F)F)c4c3CCC(C)(C)C4)n2)c(C)nc1O` [Example 56, 5-(5-(6,6-Dimethyl-1-(2,2,2-trifluoroethyl)-4,5,6,7-tetrahydro-1H-indazol-3-yl)-1,2,4-oxadiazol-3-yl)-3-ethyl-6-methylpyridin-2-ol], the EC50 is 31 nM.

In turn, `CCn1nc(-c2nc(-c3ccc4c(c3)CCC(NCC(=O)O)C4)no2)c2c1CC(C)(C)CC2` (stereo not drawn) [Example 68, 2-(6-(5-(1-Ethyl-6,6-dimethyl-4,5,6,7-tetrahydro-1H-indazol-3-yl)-1,2,4-oxadiazol-3-yl)-1,2,3,4-tetrahydronaphthalen-2-ylamino)ethanoic Acid] came in with an EC50 of 1.9 nM. Compared with the last compound, the EC50 is about 16-fold lower.

`Cc1cc(-c2noc(-c3noc4c3CCC(C)(C)C4)n2)cc(C)c1CCNCC(=O)O` [Example 74] showed an EC50 of 1.7 nM.

`Cc1cc(-c2noc(-c3nn(C)c4c3CCC(C)(C)C4)n2)cc(C)c1CCN1CC(C(=O)O)C1` [Example 91, 1-(2,6-Dimethyl-4-(5-(1,6,6-trimethyl-4,5,6,7-tetrahydro-1H-indazol-3-yl)-1,2,4-oxadiazol-3-yl)phenethyl)azetidine-3-carboxylic Acid]: the EC50 came to 16 nM.

Compound `CCn1nc(-c2nc(-c3ccc(S(=O)(=O)NCCC(=O)O)c(Cl)c3)no2)c2c1CC(C)(C)CC2` [Example 97, 3-(2-Chloro-4-(5-(1-ethyl-6,6-dimethyl-4,5,6,7-tetrahydro-1H-indazol-3-yl)-1,2,4-oxadiazol-3-yl)phenylsulfonamido)propanoic Acid] returned an EC50 of 26 nM. This EC50 lies about 1.6-fold higher than the previous one.

As for `CCn1nc(-c2noc(-c3ccncc3)n2)c2c1CC(C)(C)CC2` [Example 99, 3-(1-Ethyl-6,6-dimethyl-4,5,6,7-tetrahydro-1H-indazol-3-yl)-5-(pyridin-4-yl)-1,2,4-oxadiazole], the EC50 was found to be 146 nM.

As to `Cc1cc(-c2noc(-c3nn(C)c4c3CCC(C)(C)C4)n2)cc(C)c1CCNC(C)(C)C` [Example 104, N-(2-{2,6-dimethyl-4-[5-(1,6,6-trimethyl-4,5,6,7-tetrahydro-1H-indazol-3-yl)-1,2,4-oxadiazol-3-yl]phenyl}ethyl)-2-methylpropan-2-amine], the midpoint of the response, the EC50, lay at 8.5 nM.

The compound `CCn1nc(-c2nc(-c3ccc(S(=O)(=O)NCCC(=O)O)cc3C)no2)c2c1CC(C)(C)CC2` [Example 117, N-({4-[5-(1-ethyl-6,6-dimethyl-4,5,6,7-tetrahydro-1H-indazol-3-yl)-1,2,4-oxadiazol-3-yl]-3-methylphenyl}sulfonyl)-beta-alanine] displayed an EC50 of 11.7 nM.

In turn, `CCn1nc(-c2nc(-c3cc(C)c(CC(N)=O)c(C)c3)no2)c2c1CC(C)(C)CC2` [Example 137, 2-{4-[5-(1-ethyl-6,6-dimethyl-4,5,6,7-tetrahydro-1H-indazol-3-yl)-1,2,4-oxadiazol-3-yl]-2,6-dimethylphenyl}acetamide] came in with an EC50 of 3.6 nM.

Compound `CCc1cc(-c2noc(-c3nn(CC)c4c3CCC(C)(C)C4)n2)c(C)nc1CCN` [Example 138, (2-{3-ethyl-5-[5-(1-ethyl-6,6-dimethyl-4,5,6,7-tetrahydro-1H-indazol-3-yl)-1,2,4-oxadiazol-3-yl]-6-methylpyridin-2-yl}ethyl)amine] displayed an EC50 of 13 nM.

In the case of `Cc1cc(-c2nnc(-c3nn(C)c4c3CCC(C)(C)C4)s2)cc(C)c1OCCN` [Example 139, (2-{2,6-dimethyl-4-[5-(1,6,6-trimethyl-4,5,6,7-tetrahydro-1H-indazol-3-yl)-1,3,4-thiadiazol-2-yl]phenoxy}ethyl)amine], the response was half-maximal at 7.3 nM (EC50).

`Cc1cc(-c2noc(-c3nn(C)c4c3CCC(C)(C)C4)n2)cc(C)c1CCO` [Example 141, 2-{2,6-dimethyl-4-[5-(1,6,6-trimethyl-4,5,6,7-tetrahydro-1H-indazol-3-yl)-1,2,4-oxadiazol-3-yl]phenyl}ethanol] returned an EC50 of 4.6 nM. Compared with the last compound, the EC50 is about 1.6-fold lower.

Regarding `Cc1cc(-c2noc(-c3nn(C)c4c3CCC(C)(C)C4)n2)cc(C)c1CCN1CCC(CC(=O)O)CC1` [Example 143, [1-(2-{2,6-dimethyl-4-[5-(1,6,6-trimethyl-4,5,6,7-tetrahydro-1H-indazol-3-yl)-1,2,4-oxadiazol-3-yl]phenyl}ethyl)piperidin-4-yl]acetic acid], the EC50 stood at 5.1 nM. This EC50 and that of the compound before are within 1.5-fold of each other.

Compound `Cc1cc(-c2noc(-c3nn(C)c4c3CCC(C)(C)C4)n2)cc(C)c1CCN[C@@H](C)C(=O)O` [Example 146, N-(2-{2,6-dimethyl-4-[5-(1,6,6-trimethyl-4,5,6,7-tetrahydro-1H-indazol-3-yl)-1,2,4-oxadiazol-3-yl]phenyl}ethyl)-L-alanine] showed an EC50 of 1.4 nM.

Regarding `CCn1nc(-c2nc(-c3ccc(CCNCC(=O)O)c(C(F)(F)F)c3)no2)c2c1CC(C)(C)CC2` [Example 162, N-{2-[4-[5-(1-ethyl-6,6-dimethyl-4,5,6,7-tetrahydro-1H-indazol-3-yl)-1,2,4-oxadiazol-3-yl]-2-(trifluoromethyl)phenyl]ethyl}glycine], the half-maximal effective concentration (EC50) turned out to be 0.56 nM.

For `Cc1cc(-c2noc(-c3noc4c3CCC(C)(C)C4)n2)cc(C)c1CC(O)CO` (stereo not drawn) [Example 170, 3-{4-[5-(6,6-dimethyl-4,5,6,7-tetrahydro-1,2-benzisoxazol-3-yl)-1,2,4-oxadiazol-3-yl]-2,6-dimethylphenyl}propane-1,2-diol], the EC50 worked out at 8.3 nM. Against the preceding compound, the EC50 is about 15-fold higher.

In the case of `CCn1nc(-c2nc(-c3cccc4[nH]ccc34)no2)c2c1CC(C)(C)CC2` [Example 187, 5-(1-ethyl-6,6-dimethyl-4,5,6,7-tetrahydro-1H-indazol-3-yl)-3-(1H-indol-4-yl)-1,2,4-oxadiazole], the response was half-maximal at 10 nM (EC50).

In turn, `Cn1nc(-c2nnc(-c3ccc(CCN4CC(C(=O)O)C4)c(C(F)(F)F)c3)s2)c2c1CC(C)(C)CC2` [Example 198, 1-(2-(trifluoromethyl)-4-(5-(1,6,6-trimethyl-4,5,6,7-tetrahydro-1H-indazol-3-yl)-1,3,4-thiadiazol-2-yl)phenethyl)azetidine-3-carboxylic Acid] yielded an EC50 of 12 nM. The EC50 values of the last two compounds are within 1.5-fold of each other.
